Consider 15 compounds from patent EP0359454B1, “CC-1065 analogs having two CPI subunits” (PHARMACIA & UPJOHN COMPANY, priority 1988, dated 1990).

In one experiment the test system is L1210 leukemia cells. In words: In vitro L1210 cell growth inhibition. It is filed as cell-based, murine. As to conditions: Mus musculus, concentration of drug which inhibits cell growth 50%, read-out: ID50 (the source's name). The source says: (§1) Table 3 presents data comparing [S-(R*,R*)]-6,6′-[carbonylbis(imino-1H-indole-5,2-dicarbonyl)]bis[8-chloromethyl)-3,6,7,8-tetrahydro-1-methyl-benzo[1,2-b:4,3-b′]dipyrrol-4-ol (Compound 1) with (7bR)-N-[2-[(4,5,8,8a-tetrahydro-7-methyl-4-oxocyclopropa-[C]pyrrolo[3,2-e]indol-2(1H)0yl)carbonyl]-1H-indol-5-yl]-2-benzofurancarboxamide (U-73,975) in the other murine systems where the compounds have been run jointly.

The test system of another experiment is L-1210 Leukemia. In words: L-1210 leukemia in vivo, IV drug vs IP tumor, dosed on day 1. The arrangement: species or system Male BDF1 mice. As to conditions: IV drug vs IP tumor, dosed on day 1; for Best T/C: T/C = median survival treated/control x 100, each value at the dose (1-600 µg/kg); for cures: animals surviving 30 days are considered cured, at the dose (µg/kg).
Description: as §1
The results set forth in Tables 1 and 4 were obtained using standard well known procedures (In Vivo Cancer, Models, NIH Publication No. 84-2635, 1984).
T/C refers to median life span of treated mice divided by median life span of control mice times 100.

Each structure is given as a SMILES string. ≈ marks a conversion by molar mass, not a printed value.

As for `CCCCCCCCCC(=O)Oc1cc2c(c3c(C)c[nH]c13)[C@H](CCl)CN2C(=O)c1cc2cc(NC(=O)Nc3ccc4[nH]c(C(=O)N5C[C@@H](CCl)c6c5cc(OC(=O)CCCCCCCCC)c5[nH]cc(C)c65)cc4c3)ccc2[nH]1` [Compound 15, [S-(R*,R*)]-carbonylbis[imino-1H-indole-5,2-diylcarbonyl[1-(chloromethyl)-1,6-dihydro-8-methylbenzo[1,2-b:4,3-b′]dipyrrole-3,5(2H)-diyl]]ester, decanoic acid], in the experiment with L1210 leukemia cells, the IC50 worked out at 0.001 ng/mL (≈ 0.00089 nM). Moreover, in the experiment on L-1210 Leukemia, the “Best T/C” value was 243 and the cures came to 1.

In the case of `CC(=O)Oc1cc2c(c3c(C)c[nH]c13)[C@H](CCl)CN2C(=O)c1cc2cc(NC(=O)Nc3ccc4[nH]c(C(=O)N5C[C@@H](CCl)c6c5cc(OC(C)=O)c5[nH]cc(C)c65)cc4c3)ccc2[nH]1` [Compound 9, [S-(R*,R*)]-6,6′-[carbonylbis(imino-1H-indole-5,2-diylcarbonyl)bis[8-(chloromethyl)-3,6,7,8-tetrahydro-1-methyl-benzo[1,2-b:4,3-b′]dipyrrol-4-ol diacetate], the “Best T/C” value in the experiment on L-1210 Leukemia is given as 165.

On to `Cc1c[nH]c2c(O)cc3c(c12)[C@H](CCl)CN3C(=O)c1cc2cc(NC(=O)c3ccc4[nH]c(C(=O)Nc5ccc6[nH]c(C(=O)N7C[C@@H](CCl)c8c7cc(O)c7[nH]cc(C)c87)cc6c5)cc4c3)ccc2[nH]1` [Compound 11, [S-(R*,R*)]-N,N′-bis[2-[[1-(chloromethyl)-1,6-dihydro-5-hydroxy-8-methylbenzo[1,2-b:4,3-b′]dipyrrol-3(2H)-yl]carbonyl]-1H-indol-5-yl]-1H-indole-2,5-dicarboxamide], for which the “Best T/C” value in the experiment with L-1210 Leukemia was found to be 188.

For `Cc1c[nH]c2c1C13CC1CN(C(=O)c1cc4cc(NC(=O)Nc5ccc6[nH]c(C(=O)N7CC8CC89C7=CC(=O)c7[nH]cc(C)c79)cc6c5)ccc4[nH]1)C3=CC2=O` (stereo not drawn) [Compound 2, [7bR-[2(7′bR*,8′aS*), 7bR*,8aS*]]-2,2′-[carbonylbis(imino-1H-indole-5,2-dicarbonyl)]bis[1,2,8,8a-tetrahydro-7-methyl-cyclopropa(c)pyrrolo[3,2-e]indol-4(5H)-one], in the experiment with L1210 leukemia cells, the IC50 amounted to 0.001 ng/mL (≈ 0.00135 nM). The “Best T/C” value in the experiment with L-1210 Leukemia came to 169.

In the case of `Cc1c[nH]c2c(OC(=O)C(C)(C)C)cc3c(c12)[C@H](CCl)CN3C(=O)c1cc2cc(NC(=O)Nc3ccc4[nH]c(C(=O)N5C[C@@H](CCl)c6c5cc(OC(=O)C(C)(C)C)c5[nH]cc(C)c65)cc4c3)ccc2[nH]1` [Compound 14, [S-(R*,R*)]-carbonylbis[imino-1H-indole-5,2-diylcarbonyl[1-(chloromethyl)-1,6-dihydro-8-methylbenzo[1,2-b:4,3-b′]dipyrrole-3,5(2H)-diyl]]ester, 2,2-dimethylpropanoic acid], the “Best T/C” value with L-1210 Leukemia is on record as 156.

`Cc1c[nH]c2c(O)cc3c(c12)[C@H](CCl)CN3C(=O)c1ccc2[nH]c(C(=O)N3C[C@@H](CCl)c4c3cc(O)c3[nH]cc(C)c43)cc2c1` [Compound 10, [S-(R*,R*)]-6,6′-(1H-indole-2,5-diyldicarbonyl)bis[8-(chloromethyl)-3,6,7,8-tetrahydro-1-methyl-benzo[1,2-b:4,3-b′]dipyrrol-4-ol]: in the experiment on L-1210 Leukemia, the “Best T/C” value is on record as 213 and the cures was 1.

Turning to `Cc1c[nH]c2c(O)cc3c(c12)[C@H](CCl)CN3C(=O)c1cc2cc(NC(=O)c3ccc(C(=O)Nc4ccc5[nH]c(C(=O)N6C[C@@H](CCl)c7c6cc(O)c6[nH]cc(C)c76)cc5c4)[nH]3)ccc2[nH]1` [Compound 7, [S-(R*,R*)]-N,N′-bis[2[[1-(chloromethyl)-1,6-dihydro-5-hydroxy-8-methylbenzo[1,2-b:4,3-b′]dipyrrol-3(2H)-yl]carbonyl]-1H-indol-5-yl]-1H-pyrrole-2,5-dicarboxamide], the IC50 in the experiment with L1210 leukemia cells was 0.004 ng/mL (≈ 0.0044 nM). For the same compound, the “Best T/C” value in the experiment with L-1210 Leukemia came out at 156.

Regarding `Cc1c[nH]c2c(O)cc3c(c12)[C@H](CCl)CN3C(=O)c1ccc(C(=O)N2C[C@@H](CCl)c3c2cc(O)c2[nH]cc(C)c32)[nH]1` [Compound 4, [S-(R*,R*)]-6,6′-(1H-pyrrole-2,5-diyldicarbonyl)bis[8-(chloromethyl)-3,6,7,8-tertrahydro-1-methyl-benzo[1,2-b:4,3-b′-]dipyrrol-4-ol], the IC50 with L1210 leukemia cells was 0.004 ng/mL (≈ 0.00675 nM). In addition, the “Best T/C” value with L-1210 Leukemia is recorded as 156.

Turning to `Cc1c[nH]c2c(O)cc3c(c12)[C@H](CCl)CN3C(=O)c1cc2c3c(ccc2[nH]1)N(C(=O)N1CCc2c1ccc1[nH]c(C(=O)N4C[C@@H](CCl)c5c4cc(O)c4[nH]cc(C)c54)cc21)CC3` [Compound 16, [S-(R*,R*)]-6,6′-[carbonylbis[(7,8-dihydrobenzo[1,2-b:4,3-b′]dipyrrole-6,2(3H)-diyl)carbonyl]]bis[8-chloromethyl)-3,6,7,8-tetrahydro-1-methyl-benzo[1,2-b:4,3b′]dipyrrol-4-ol], the IC50 in the experiment on L1210 leukemia cells is 0.002 ng/mL (≈ 0.0023 nM). Moreover, in the experiment with L-1210 Leukemia, the “Best T/C” value came to 243 and the cures was 1/6.

In the case of `Cc1c[nH]c2c(O)cc3c(c12)[C@H](CCl)CN3C(=O)c1ccc(C(=O)N2C[C@@H](CCl)c3c2cc(O)c2[nH]cc(C)c32)o1` [Compound 5, [S-(R*,R*)]-6,6′-(2,5-furandiyldicarbonyl)bis[8-(chloromethyl)-3,6,7,8-tertrahydro-1-methyl-benzo[1,2-b:4,3′b′]dipyrrol-4-ol], the IC50 in the experiment on L1210 leukemia cells is 0.01 ng/mL (≈ 0.0169 nM). For the same compound, in the experiment on L-1210 Leukemia, the “Best T/C” value is 156.

Take `Cc1c[nH]c2c(O)cc3c(c12)[C@H](CCl)CN3C(=O)c1ccc2[nH]c(C(=O)Nc3ccc4[nH]c(C(=O)N5C[C@@H](CCl)c6c5cc(O)c5[nH]cc(C)c65)cc4c3)cc2c1` [Compound 13, [S-(R*,R*)]-5-[[1-(chloromethyl)-1,6-dihydro-5-hydroxy-8-methylbenzo[1,2-b:4,3-b′]dipyrrol-3(2H)-yl]-carbonyl)-N-[2-[[1-(chloromethyl)-1,6-dihydro-5-hydroxy-8-methylbenzo[1,2-b:4,3-b′]dipyrrol-3(2H)-yl]carbonyl)-1H-indol-5-yl]-1H-indole-2-carboxamide]: the “Best T/C” value in the experiment on L-1210 Leukemia was 188.

As for `Cc1c[nH]c2c(O)cc3c(c12)[C@H](CCl)CN3C(=O)c1cc2cc(NC(=O)CC(=O)Nc3ccc4[nH]c(C(=O)N5C[C@@H](CCl)c6c5cc(O)c5[nH]cc(C)c65)cc4c3)ccc2[nH]1` [Compound 8, [R-(R*,S*)]-N,N′-bis[2[[1-(chloromethyl)-1,6-dihydro-5-hydroxy-8-methylbenzo[1,2-b:4,3-b′]dipyrrol-3(2H)-yl]carbonyl]-1H-indol-5-yl]-propanediamide], in the experiment with L1210 leukemia cells, the IC50 is 0.006 ng/mL (≈ 0.007 nM). In the experiment on L-1210 Leukemia, the “Best T/C” value worked out at 194.

Regarding `Cc1c[nH]c2c(O)cc3c(c12)[C@H](CCl)CN3C(=O)c1cc2cc(NC(=O)C(=O)Nc3ccc4[nH]c(C(=O)N5C[C@H](CCl)c6c5cc(O)c5[nH]cc(C)c65)cc4c3)ccc2[nH]1` [Compound 3, (R*,S*)-N,N′-bis[2-[[1-(chloromethyl)-1,6-dihydro-5-hydroxy-8-methylbenzo[1,2-b:4,3-b′]dipyrrol-3(2H)-yl]carbonyl]-1H-indol-5-yl]-ethanediamide], the IC50 in the experiment with L1210 leukemia cells worked out at 0.009 ng/mL (≈ 0.0107 nM). The “Best T/C” value in the experiment with L-1210 Leukemia was 106.

As for `Cc1c[nH]c2c(O)cc3c(c12)[C@H](CCl)CN3C(=O)c1cc2cc(NC(=O)c3ccc(C(=O)Nc4ccc5[nH]c(C(=O)N6C[C@@H](CCl)c7c6cc(O)c6[nH]cc(C)c76)cc5c4)o3)ccc2[nH]1` [Compound 6, [S-(R*,R*]-N,N′-bis[2-[[1-(chloromethyl)-1,6-dihydro-5-hydroxy-8-methylbenzo[1,2-b:4,3-b′]dipyrrol-3(2H)-yl]carbonyl]-1H-indol-5-yl]-2,5-furandicarboxamide], the IC50 in the experiment on L1210 leukemia cells was 0.012 ng/mL (≈ 0.0132 nM). Besides, in the experiment with L-1210 Leukemia, the “Best T/C” value was 178 and the cures is on record as 1.

In the case of `Cc1c[nH]c2c(O)cc3c(c12)[C@H](CCl)CN3C(=O)c1cc2cc(NC(=O)c3ccc4[nH]c(C(=O)N5C[C@@H](CCl)c6c5cc(O)c5[nH]cc(C)c65)cc4c3)ccc2[nH]1` [Compound 12, [S-(R*,R*)]-2-[[1-(chloromethyl)-1,6-dihydro-5-hydroxy-8-methylbenzo[1,2-b:4,3-b′]dipyrrol-3(2H)-yl]carbonyl]-N-[3-[[1-(chloromethyl)-1,6-dihydro-5-hydroxy-8-methylbenzo[1,2-b:4,3-b′]dipyrrol-3(2H)-yl]carbonyl]-1H-indol-6-yl]-1H-indole-5-carboxamide], in the experiment with L-1210 Leukemia, the “Best T/C” value is given as 181.
